For 7 molecules, viability, T/C and IC50 results are on record in PubChem BioAssay AID2060889 (Molecular Pharmacology Branch, DTP, NCI, 2025).

Usually viability, T/C stands for the ratio of treated to control. In general, IC50 refers to the point on the concentration scale where inhibition reaches its midpoint.

For the experiment, the system named is LG0567-F671-PDC complex spheroids viability. The experiment can be described thus: Anticancer human tumor LG0567-F671-PDC patient-derived lung adenocarcinoma cell line growth inhibition [RAS]. The following applies: for viability, T/C: stronger effect = lower value. The text has this: RAS pathway inhibitors in Combinations in Complex Spheroids
A high-throughput screen of multi-cell type tumor spheroids was designed to identify active combinations of RAS pathway inhibitors and targeted small molecules. Complex spheroids include a stromal component modeled by human endothelial cells (HUVEC) and fibroblasts modeled by human mesenchymal stem cells (MSCs). The concentration ranges selected for each drug and investigational agent were based upon clinically achievable concentrations if the clinical Cmax of the agent was known.
Compounds. The drugs and investigational agents: abemaciclib (NSC768073), cobimetinib (NSC768068), divarasib (GDC6063, NSC841802), docetaxel (NSC628503), GDC-1971 (RLY-1971, NSC841576), gemcitabine (NSC613327), inavolisib (NSC800729), ipatasertib (NSC767898), KB-0742 (NSC834161), MRTX-1133 (NSC836407), osimertinib (NSC779217), RMC-4630 (NSC839698), RMC-6236 (NSC851965), RMC-6291 (NSC852671), Ro-3306 (NSC812927), sapanisertib (NSC764658), SN-38 (NSC673596), staurosporine (NSC755774), SY5609 (NSC837396), and tovorafenib (DAY101, NSC766906), were obtained from the National Cancer Institute (NCI) Developmental Therapeutics Program Chemical Repository. The FDA-approved anticancer drug set is available from the NCI Developmental Therapeutics Program. […] The stock solutions were prepared in dimethyl sulfoxide (DMSO, Sigma-Aldrich, St. Louis, MO, cat. D2650) at 800-fold the tested concentration and stored at -70 degrees C prior to their use. All drugs and investigational agents were tested over a range starting from a high concentration at or near the clinical Cmax and decreasing in half-log increments. If the clinical Cmax for an agent had not been determined, the highest concentration tested was 10 microM.
Cell Culture. All cells were maintained in an incubator at 37 degrees C and 5% CO2 with 95% humidity. The PDC lines were cultured according to standard operating procedures established by the NCI PDMR. All PDCs were thawed and cultured in Matrigel-coated flasks prepared with a working solution of 1X Ham's F-12 nutrient mix, without supplementation (Invitrogen, Waltham, MA, cat. 11765054), 100 U/mL penicillin-streptomycin (Invitrogen, cat. 15140122), and 2.5% Matrigel (Corning Inc., Corning, NY, cat. 354248) for the first three passages. The 362531-283-R-J2-PDC and 782815-120-R-J1-PDC lines were cultured in 6C/Colon 1B media, which includes advanced DMEM/F-12 (Thermo Fisher Scientific, cat. 12634028), 10 mM HEPES (Thermo Fisher Scientific, cat. 15630080), 1X GlutaMAX supplement (Thermo Fisher Scientific, cat. 35050061), 0.1 mg/mL primocin (InvivoGen, San Diego, CA, cat. ant-pm-2), 10% defined fetal bovine serum, heat inactivated (HyClone Laboratories Inc., Logan, UT, cat. SH30070.03HI), 50% L-WRN conditioned media (ATCC, cat. CRL-3276), 1.25 mM N-Acetyl-L-cysteine (Sigma-Aldrich, cat. A9165), 10 mM nicotinamide (Sigma-Aldrich, cat. N0636), 1X B-27 supplement (Thermo Fisher Scientific, cat. 17504044), 1X N-2 supplement (Thermo Fisher Scientific, cat. 17502048), 50 ng/mL human EGF (Thermo Fisher Scientific, cat. PHG0311), and 10 microM Y-27632 dihydrochloride (Tocris Bioscience, cat. 1254). The K12877-001-R-J1-PDC line was cultured in 6I media, which includes all 6C/Colon 1B media plus 10 ng/mL human FGF-10 (PeproTech, cat. 100-26), 1 ng/mL human FGF-2 (PeproTech, cat. 100-18B), 1 µM prostaglandin E2 (Tocris Bioscience, cat. 2296), […] hydrocortisone (Sigma-Aldrich, cat. H4001), and […] bovine insulin (Sigma-Aldrich, cat. I6634). The K86415-001-R-J1-PDC line was cultured in 6D media, which includes all 6C/Colon 1B media components minus the L-WRN conditioned media. The 485176-168-R4-J1-PDC was cultured in PANC media, which includes all 6C/Colon 1B media plus 100 ng/mL human FGF-10 (PeproTech, cat. 100-26), 500 nM SB-431542 (Selleckchem, cat. S1067), and 10 nM gastrin (Tocris Bioscience, cat. 3006). […]

Where “and” joins values, the source holds several entries; their conditions need not be identical. Equal entries are not always repeated.
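Further: spheroids exposed to compound for seven days before readout.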
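Wherever IC50 is given: luminescence signal used as a proxy for viable cells.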

On to `CC(=O)OC12COC1CC(O)C1(C)C(=O)C(O)C3=C(C)C(OC(=O)C(O)C(NC(=O)OC(C)(C)C)c4ccccc4)CC(O)(C(OC(=O)c4ccccc4)C21)C3(C)C` (stereo not drawn), for which the viability, T/C was 51.5% [middle of 4 runs] (compound 0.0316 µM); 44.6% [middle of 4 runs] (compound 0.1 µM); 58.4% [middle of 4 runs] (compound 0.316 µM); 62.5% [middle of 4 runs] (compound 1 µM); 70.3% [middle of 4 runs] (compound 3.16 µM); 63.5% [middle of 4 runs] (compound 10 µM). Further, the IC50 (curve of compound) was less than 31.6 nM.

Regarding `CC1(O)CCCC1n1c(=O)c(C(F)F)cc2cnc(NC3CCN(S(C)(=O)=O)CC3)nc21` (stereo not drawn), the viability, T/C runs as follows: (compound 0.0316 µM) 88.7% [middle of 4 runs]; (compound 0.1 µM) 86.2% [middle of 4 runs]; (compound 0.316 µM) 81.6% [middle of 4 runs]; (compound 1 µM) 91.5% [middle of 4 runs]; (compound 3.16 µM) 93.8% [middle of 4 runs]; (compound 10 µM) 47% [middle of 4 runs].

As for `CCC(CC)c1cc(NC2CCC(N)C2)n2nccc2n1` (stereo not drawn), the viability, T/C was 101% [middle of 4 runs] (compound 0.0316 µM); 106% [middle of 4 runs] (compound 0.1 µM); 100% and 103% (2×) and 138% (compound 0.316 µM); 111% and 103% (2×) and 118% (compound 1 µM); 5.03% [middle of 4 runs] (compound 3.16 µM); 0.67% [middle of 4 runs] (compound 10 µM). The IC50 (curve of compound) is 1.86 µM [middle of 4 runs].

For `C[C@@H](NC(=O)c1ncnc(N)c1Cl)c1ncc(C(=O)Nc2cc(C(F)(F)F)c(Cl)cn2)s1`, the viability, T/C reads like this: (compound 0.0316 µM) 115% [middle of 4 runs]; (compound 0.1 µM) 120% (2×) and 125% (2×); (compound 0.316 µM) 129% and 122% (2×) and 128%; (compound 1 µM) 121% [middle of 4 runs]; (compound 3.16 µM) 102% [middle of 4 runs]; (compound 10 µM) 79% [middle of 4 runs]. In addition, the IC50 (curve of compound) was greater than 10000 nM.

With `Cc1nc(N2CCC3(CC2)COC(C)C3N)c(CO)nc1Sc1ccnc(N)c1Cl` (stereo not drawn), the viability, T/C is 72.2% [middle of 4 runs] (compound 0.0316 µM); 48.2% [middle of 4 runs] (compound 0.1 µM); 36.3% [middle of 4 runs] (compound 0.316 µM); 28.1% [middle of 4 runs] (compound 1 µM); 21.7% [middle of 4 runs] (compound 3.16 µM); 19.9% [middle of 4 runs] (compound 10 µM). Besides, the IC50 (curve of compound) was 93.7 nM [middle of 4 runs].

Regarding `NC1c2ccccc2OC12CCN(c1cnc3c(N4CCCc5ncccc54)n[nH]c3n1)CC2` (stereo not drawn), the viability, T/C is, setting by setting: (compound 0.0316 µM) 37.3% [middle of 4 runs]; (compound 0.1 µM) 26.9% [middle of 4 runs]; (compound 0.316 µM) 23.4% [middle of 4 runs]; (compound 1 µM) 23% [middle of 4 runs]; (compound 3.16 µM) 21.2% [middle of 4 runs]; (compound 10 µM) 20.4% [middle of 4 runs]. For the same molecule, the half-maximal inhibitory concentration (IC50) (curve of compound) was less than 31.6 nM.

For the molecule `C=CC(=O)Nc1cc(Nc2nccc(-c3cn(C)c4ccccc34)n2)c(OC)cc1N(C)CCN(C)C` + C#Cc1c(F)ccc2cc(O)cc(-c3ncc4c(N5CC6CCC(C5)N6)nc(OCC56CCCN5CC(F)C6)nc4c3F)c12, the IC50 reads like this: (curve of first compound, second compound 0.0316 µM) 120 nM; (curve of first compound, second compound 0.1 µM) 84.3 nM; (curve of first compound, second compound 0.316 µM) 8.15 nM; (curve of first compound, second compound 1 µM) less than 3.16 nM; (curve of first compound, second compound 3.16 µM) less than 3.16 nM; (curve of first compound, second compound 10 µM) less than 3.16 nM. The viability, T/C (second compound 0.0316 µM, first compound 0.00316 µM) was 88.7%; the viability, T/C (second compound 0.0316 µM, first compound 0.01 µM) was 80.7%; the viability, T/C (second compound 0.0316 µM, first compound 0.0316 µM) was 67.4%; the viability, T/C (second compound 0.0316 µM, first compound 0.1 µM) is 54.1%; the viability, T/C (second compound 0.0316 µM, first compound 0.316 µM) was 34.5%; the viability, T/C (second compound 0.0316 µM, first compound 1 µM) was 19.1%. For the same molecule, the viability, T/C runs as follows: (second compound 0.1 µM, first compound 0.00316 µM) 79.8%; (second compound 0.1 µM, first compound 0.01 µM) 74.8%; (second compound 0.1 µM, first compound 0.0316 µM) 66.8%; (second compound 0.1 µM, first compound 0.1 µM) 47.1%; (second compound 0.1 µM, first compound 0.316 µM) 27%; (second compound 0.1 µM, first compound 1 µM) 16.2%. The viability, T/C reads like this: (second compound 0.316 µM, first compound 0.00316 µM) 53.4%; (second compound 0.316 µM, first compound 0.01 µM) 49.3%; (second compound 0.316 µM, first compound 0.0316 µM) 42.8%; (second compound 0.316 µM, first compound 0.1 µM) 28.4%; (second compound 0.316 µM, first compound 0.316 µM) 22.1%; (second compound 0.316 µM, first compound 1 µM) 11.3%. The viability, T/C reads like this: (second compound 1 µM, first compound 0.00316 µM) 38.1%; (second compound 1 µM, first compound 0.01 µM) 32.8%; (second compound 1 µM, first compound 0.0316 µM) 28.9%; (second compound 1 µM, first compound 0.1 µM) 20.4%; (second compound 1 µM, first compound 0.316 µM) 11.9%; (second compound 1 µM, first compound 1 µM) 6.5%. Further, the viability, T/C runs as follows: (second compound 3.16 µM, first compound 0.00316 µM) 20.5%; (second compound 3.16 µM, first compound 0.01 µM) 17%; (second compound 3.16 µM, first compound 0.0316 µM) 16.2%; (second compound 3.16 µM, first compound 0.1 µM) 12.2%; (second compound 3.16 µM, first compound 0.316 µM) 8.15%; (second compound 3.16 µM, first compound 1 µM) 4.09%. Moreover, the viability, T/C was 13.5% (second compound 10 µM, first compound 0.00316 µM); 10.9% (second compound 10 µM, first compound 0.01 µM); 9.25% (second compound 10 µM, first compound 0.0316 µM); 6.54% (second compound 10 µM, first compound 0.1 µM); 4.27% (second compound 10 µM, first compound 0.316 µM); 2.83% (second compound 10 µM, first compound 1 µM).
